This note sets out measurements from patent US7495104B2, “Quinoline or quinazoline derivatives inhibiting auto-phosphorylation of fibroblast growth factor receptors” (Kirin Beer Kabushiki Kaisha, priority 2001, dated 2009).

In assay [1] the test system is Human gastric cancer cells (OCUM-2MD3). In words: Tumor growth inhibitory activity against human gastric cancer cells (OCUM-2MD3) in nude mice (Pharmacological Test Example 3). As to conditions: Mus musculus, read-out: TGIR (tumor growth inhibition rate); for inhibition in vivo at 10 mg: 240 h, dose per day 10 mg × 2, oral; for inhibition in vivo at 25 mg: 600 h, dose per day 25 mg × 1, oral. The format is in vivo. The protocol: (§1) Human gastric cancer cells (OCUM-2MD3) (kindly provided by Dr. Kosei Hirakawa, Osaka City University) were transplanted into nude mice. […] The test compound suspended in 0.5% methylcellulose was orally administered every day twice a day for 5 days (except for the first day on which the suspension was administered once a day).
(§2) Only 0.5% methylcellulose was administered to the control group in the manner as in the test groups. The tumor growth inhibition rate (TGIR) was calculated as follows: The tumor growth inhibition rate (TGIR)=(1−TX/CX)×100 wherein CX represents the volume of tumor at day X for the control group when the tumor volume at the day of the start of the administration was presumed to be 1; and TX represents the volume of tumor for test compound administration groups.
Tumor growth inhibitory activity was measured in the same manner as in Pharmacological Test Example 2, except that oral administration was carried out once a day or twice a day (except for the first day on which the suspension was administered once a day).

The next assay concerns the target Bek (Homo sapiens, UniProt P21802). In words: Inhibitory activity against Bek-autophosphorylation using ELISA method in OCUM-2MD3 cells. The format is cell-based. As to conditions: 1 hr with compound, read-out: IC50 (concentration necessary for inhibiting 50% of Bek-phosphorylation). An outline of the steps:
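OCUM-2MD3 human scirrhous gastric cancer cells in 0.1% FCS were exposed to compound for 1 hr at 37° C, then lysed. Phospho-tyrosine proteins were captured with anti-phosphotyrosine antibody, probed with anti-Bek antibody and peroxidase read-out (A450). Positive control (1000 nM) set 0%, untreated 100%; IC50 from multi-level dilutions.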

For assay [2], the system named is Human gastric cancer cells (OCUM-2MD3). In words: Tumor growth inhibitory activity against human gastric cancer cells (OCUM-2MD3) in nude mice (Pharmacological Test Example 2). Type of assay: in vivo. The following applies: unit dose 10 mg/kg, oral, twice a day for 5 days. The protocol:
as §1, §2

Counter-ions that a name gives are not always drawn. Where only a bound is given, the exact number is not on record here.

Bek, sequence (P21802 431-767 limits assumed): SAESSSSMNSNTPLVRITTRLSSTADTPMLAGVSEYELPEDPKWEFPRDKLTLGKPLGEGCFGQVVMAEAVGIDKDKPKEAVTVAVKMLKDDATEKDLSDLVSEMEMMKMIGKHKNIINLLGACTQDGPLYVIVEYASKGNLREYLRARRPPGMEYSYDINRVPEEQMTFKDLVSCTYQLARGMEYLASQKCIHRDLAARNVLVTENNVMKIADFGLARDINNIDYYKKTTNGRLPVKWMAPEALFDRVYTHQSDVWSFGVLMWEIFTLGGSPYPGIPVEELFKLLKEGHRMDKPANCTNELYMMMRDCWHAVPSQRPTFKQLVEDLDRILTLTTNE

Consider `COc1cc2c(Oc3ccc(NC(=O)NCCC(C)(C)C)c(F)c3)ccnc2cc1OCCN1CCOCC1` [Compound 87, 1-(3,3-Dimethyl-butyl)-3-{2-fluoro-4-[6-methoxy-7-(2-morpholin-4-yl-ethoxy)-quinolin-4-yloxy]-phenyl}-urea], for which, in assay [1], the inhibition in vivo at 10 mg is 33% and the inhibition in vivo at 25 mg amounted to 54%. In addition, the IC50 on Bek was below 10 nM. Turning to `COc1cc2c(Oc3ccc(NC(=O)NCCC(C)(C)C)c(F)c3)ccnc2cc1OCCN1CCCCC1` [Compound 99, 1-(3,3-Dimethyl-butyl)-3-{2-fluoro-4-[6-methoxy-7-(2-piperidin-1-yl-ethoxy)-quinolin-4-yloxy]-phenyl}-urea], in assay [1], the inhibition in vivo at 25 mg is 63%. Also, the IC50 on Bek is 28.6 nM. As for `COc1cc2c(Oc3ccc(NC(=O)NCCC(C)(C)C)cc3F)ccnc2cc1OCCN1CCOCC1` [Compound 98, 1-(3,3-Dimethyl-butyl)-3-{3-fluoro-4-[6-methoxy-7-(2-morpholin-4-yl-ethoxy)-quinolin-4-yloxy]-phenyl}-urea], in assay [1], the inhibition in vivo at 25 mg turned out to be 48%. Further, the IC50 on Bek was below 10 nM. On to `COc1cc2c(Oc3ccc(Nc4ccc(C(C)(C)C)cc4)cc3)ccnc2cc1OCCN1CCOCC1` [Compound 37 (hydrochloride)], for which the “TGIR (tumor growth inhibition rate)” value in assay [2] was 35%. Take `COc1cc2c(Oc3ccc(NC(=O)NCCC(C)(C)C)cc3)ccnc2cc1OCCCN1CCC(CO)CC1` [Compound 94, 1-(3,3-Dimethyl-butyl)-3-(4-{7-[3-(4-hydroxymethyl-piperidin-1-yl)-propoxy]-6-methoxy-quinolin-4-yloxy}-phenyl)-urea]: the inhibition in vivo at 10 mg in assay [1] amounted to 40%.

`COc1cc2nccc(Oc3ccc(NC(=O)NCCC(C)(C)C)cc3)c2cc1OCCN1CCOCC1` [Compound 90, 1-(3,3-Dimethyl-butyl)-3-{4-[7-methoxy-6-(2-morpholin-4-yl-ethoxy)-quinolin-4-yloxy]-phenyl}-urea]: the inhibition in vivo at 10 mg in assay [1] was found to be 36%. Besides, at Bek, the IC50 is 12.6 nM.

In the case of `COc1cc2c(Oc3ccc(NC(=O)NCCC(C)(C)C)c(F)c3)ccnc2cc1OCCN1CC(C)OC(C)C1` (stereo not shown) [Compound 97, 1-(3,3-Dimethyl-butyl)-3-(4-{7-[2-(2,6-dimethyl-morpholin-4-yl)-ethoxy]-6-methoxy-quinolin-4-yloxy}-2-fluoro-phenyl)-urea], the inhibition in vivo at 25 mg in assay [1] worked out at 48%. Moreover, on Bek, the IC50 is below 10 nM. As to `COc1cc2nccc(Oc3ccc(Nc4ccc(C(C)(C)C)cc4)cc3)c2cc1OCC(O)CN1CCOCC1` (stereo not shown) [Compound 86, 1-[(4-{4-[4-(Tert-butyl)anilino]phenoxy}-7-methoxy-6-quinolyl)-oxy]-3-morpholino-2-propanol], in assay [1], the inhibition in vivo at 10 mg was 30%. Still for that read-out and setting: with `COc1cc2c(Oc3ccc(Nc4ccc(C(C)(C)C)cc4)cc3Cl)ccnc2cc1OCCN1CCOCC1` [Compound 84, N-[4-(Tert-butyl)phenyl]-N-(3-chloro-4-{[6-methoxy-7-(2-morpholinoethoxy)-4-quinolyl]oxy}phenyl)amine] the figure was 33%.

For `COc1cc2c(Oc3ccc(NC(=O)NCCC(C)(C)C)c(F)c3)ccnc2cc1OCCCN1CCOCC1` [Compound 88, 1-(3,3-Dimethyl-butyl)-3-{2-fluoro-4-[6-methoxy-7-(3-morpholin-4-yl-propoxy)-quinolin-4-yloxy]-phenyl}-urea hydrochloride], in assay [1], the inhibition in vivo at 10 mg turned out to be 35%. For the same molecule, the IC50 on Bek is 10.8 nM. On to `COc1cc2c(Oc3ccc(NC(=O)NCCC(C)(C)C)c(F)c3)ccnc2cc1OCC(O)CN1CCOCC1` (stereo not shown) [Compound 89, 1-(3,3-Dimethyl-butyl)-3-{2-fluoro-4-[7-(2-hydroxy-3-morpholin-4-yl-propoxy)-6-methoxy-quinolin-4-yloxy]-phenyl}-urea hydrochloride], for which, in assay [1], the inhibition in vivo at 10 mg turned out to be 29%. In addition, the IC50 on Bek is below 10 nM. `COc1cc2c(Oc3ccc(Nc4ccc(C(C)(C)C)cc4)cc3)ccnc2cc1OCCNCCO` [Compound 85, 2-({2-[(4-{4-[4-(Tert-butyl)anilino]phenoxy}-6-methoxy-7-quinolyl)oxy]ethyl}amino)-1-ethanol]: in assay [1], the inhibition in vivo at 10 mg worked out at 43%. For the molecule `COc1cc2c(Oc3ccc(NC(=O)NCCC(C)(C)C)c(Cl)c3)ccnc2cc1OCCN1CCCCC1` [Compound 100, 1-{2-Chloro-4-[6-methoxy-7-(2-piperidin-1-yl-ethoxy)-quinolin-4-yloxy]-phenyl}-3-(3,3-dimethyl-butyl)-urea], in assay [1], the inhibition in vivo at 25 mg amounted to 43%. Further, at Bek, the IC50 came to 175 nM. With `COc1cc2c(Oc3ccc(NC(=O)NCCC(C)(C)C)c(Cl)c3)ccnc2cc1OCCN1CCOCC1` [Compound 114, 1-{2-Chloro-4-[6-methoxy-7-(2-morpholin-4-yl-ethoxy)-quinolin-4-yloxy]-phenyl}-3-(3,3-dimethyl-butyl)-urea], the inhibition in vivo at 30 mg in assay [1] (720 h, dose per day 30 mg × 2, oral) is 48%. For the same molecule, the IC50 on Bek stood at 20.1 nM. `COc1cc2c(Oc3ccc(NC(=O)NCCC(C)(C)C)cc3)ccnc2cc1OCCN1CCCCC1` [Compound 91, 1-(3,3-Dimethyl-butyl)-3-{4-[6-methoxy-7-(2-piperidin-1-yl-ethoxy)-quinolin-4-yloxy]-phenyl}-urea hydrochloride]: the inhibition in vivo at 25 mg in assay [1] was 28%. Moreover, on Bek, the IC50 amounted to 18.4 nM. Consider `COc1cc2c(Oc3ccc(Nc4ccc(C(C)(C)C)cc4)cc3)ccnc2cc1OCC(O)CN1CCOCC1` (stereo not shown) [Compound 59 (hydrochloride)], for which the “TGIR (tumor growth inhibition rate)” value in assay [2] is 16%. Consider `COc1cc2c(Oc3ccc(Nc4ccc(C(C)(C)C)cc4)cc3)ccnc2cc1OCC[N+]1([O-])CCOCC1` [Compound 83, 4-{2-[(4-{4-[4-(Tert-butyl)anilino]phenoxy}-6-methoxy-7-quinolyl)-oxy]ethyl}-1,4-oxazinan-4-ium-4-oleate], for which the inhibition in vivo at 10 mg in assay [1] was found to be 34%.

With `COc1cc2c(Oc3ccc(NC(=O)NCCC(C)(C)C)cc3)ccnc2cc1OCCCCCl` [Compound 153, 1-{4-[7-(4-Chloro-butoxy)-6-methoxy-quinolin-4-yloxy]-phenyl}-3-(3,3-dimethyl-butyl)-urea], at Bek, the IC50 was 241 nM. The same measure, in the same setting: with `COc1cc2c(Oc3ccc(Nc4ccc(C(C)C)cc4)cc3)ccnc2cc1OCC(=O)N1CCOCC1` [Compound 229, 2-{4-[4-(4-Isopropyl-phenylamino)-phenoxy]-6-methoxy-quinolin-7-yloxy}-1-morpholin-4-yl-ethanone] the figure was 156 nM. With `COc1cc2c(Oc3ccc(NC(=O)NCCC(C)(C)C)c(Cl)c3)ccnc2cc1OCC(O)CN1CCCC1` (stereo not shown) [Compound 192, 1-{2-Chloro-4-[7-(2-hydroxy-3-pyrrolidin-1-yl-propoxy)-6-methoxy-quinolin-4-yloxy]-phenyl}-3-(3,3-dimethyl-butyl)-urea], the IC50 on Bek was 9.1 nM. On the same count and under the same terms, with `COc1cc2c(Oc3ccc(NC(=O)NCCC(C)(C)C)c(Cl)c3)ccnc2cc1OCCN1CC(C)OC(C)C1` (stereo not shown) [Compound 125, 1-(2-Chloro-4-{7-[2-(2,6-dimethyl-morpholin-4-yl)-ethoxy]-6-methoxy-quinolin-4-yloxy}-phenyl)-3-(3,3-dimethyl-butyl)-urea] the figure was 13 nM. Still for that read-out and setting: with `COc1cc2c(Oc3ccc(NC(=O)NCCC(C)(C)C)cc3Cl)ccnc2cc1OCCN1CCC(O)CC1` [Compound 311, 1-(3-Chloro-4-{7-[2-(4-hydroxy-piperidin-1-yl)-ethoxy]-6-methoxy-quinolin-4-yloxy}-phenyl)-3-(3,3-dimethyl-butyl)-urea] the figure was 23.1 nM. With `COc1cc2c(Oc3ccc(NC(=O)NCCC(C)(C)C)c(Cl)c3)ccnc2cc1OCCCN(C)CCO` [Compound 178, 1-[2-Chloro-4-(7-{3-[(2-hydroxy-ethyl)-methyl-amino]-propoxy}-6-methoxy-quinolin-4-yloxy)-phenyl]-3-(3,3-dimethyl-butyl)-urea], the IC50 on Bek is below 10 nM. Same read-out and setting: with `COc1cc2c(Oc3ccc(Nc4ccc(C(C)(C)C)cc4)cc3F)ccnc2cc1OCCN1CCC(CO)CC1` [Compound 283, [1-(2-{4-[4-(4-Tert-butyl-phenylamino)-2-fluoro-phenoxy]-6-methoxy-quinolin-7-yloxy}-ethyl)-piperidin-4-yl]-methanol] the figure was 167 nM; with `COc1cc2c(Oc3ccc(Nc4ccc(C(C)(C)C)cc4)cc3)ccnc2cc1OCCN(C)CCO` [Compound 49, 2-[(2-{4-[4-(4-Tert-butyl-phenylamino)phenoxy]-6-methoxy-quinolin-7-yloxy}ethyl)methylamino]ethanol], 33.9 nM; with `COc1cc2c(Oc3ccc(Nc4ccc(C(C)(C)C)cc4)cc3)ccnc2cc1OCCCN(C)CCO` [Compound 52, 2-[(3-{4-[4-(4-Tert-butylphenylamino)phenoxy]-6-methoxy-quinolin-7-yloxy}propyl)methylamino]ethanol], 33 nM.
